Test results from ChEMBL document CHEMBL5143721, “Novel Hydroxychalcone-Based Dual Inhibitors of Aldose Reductase and α-Glucosidase as Potential Therapeutic Agents against Diabetes Mellitus and Its Complications” (J Med Chem, 2022).
One block for each compound: values may come before it. Active and inactive are the calls of the source. No cut-off for these calls is given here.

Tests used:
[1] = In vivo inhibition of ALR2 in STZ-induced diabetic Sprague-Dawley rat model assessed as reduction in ALR2 activity in lens at 80 mg/kg, IG administered once daily for 28 days relative to control; format: functional; design: scale not given: the % may be the effect or the level left; conditions: time 28 day
[2] = Antioxidant activity assessed as DPPH radical scavenging activity at 1 uM incubated for 30 mins by DPPH assay relative to control; format: functional
Rattus norvegicus [3] = experiment: Antioxidant activity against STZ-induced diabetic Sprague-Dawley rat model assessed as reduction in MDA level at 80 to 160 mg/kg, IG administered once daily for 28 days relative to control; format: functional, organism-based; conditions: dose 80-160 mg/kg, time 28.0 day
Rattus norvegicus [4] = experiment: Antioxidant activity against STZ-induced diabetic Sprague-Dawley rat model assessed as reduction in SOD level at 160 mg/kg, IG administered once daily for 28 days relative to control; format: functional; design: scale not given: the % may be the effect or the level left; conditions: time 28 day
Rattus norvegicus [5] = experiment: Antidiabetic activity against STZ-induced diabetic Sprague-Dawley rat model assessed as reduction in fasting blood glucose level at 160 mg/kg, IG administered once daily for 28 days; format: functional; design: scale not given: the % may be the effect or the level left; conditions: time 28 day
[6] = In vivo inhibition of ALR2 in STZ-induced diabetic Sprague-Dawley rat model assessed as reduction in sorbitol accumulation in lens at 160 mg/kg, IG administered once daily for 28 days by colorimetric assay relative to control; format: functional; design: scale not given: the % may be the effect or the level left; conditions: time 28 day
[7] = In vivo inhibition of ALR2 in STZ-induced diabetic Sprague-Dawley rat model assessed as reduction in sorbitol accumulation in lens at 80 mg/kg, IG administered once daily for 28 days by colorimetric assay relative to control; format: functional; design: scale not given: the % may be the effect or the level left; conditions: time 28 day
Rattus norvegicus [8] = experiment: Antidiabetic activity against STZ-induced diabetic Sprague-Dawley rat model assessed as reduction in total cholesterol level in serum at 160 mg/kg, IG administered once daily for 28 days relative to control; format: functional; design: scale not given: the % may be the effect or the level left; conditions: time 28 day
Rattus norvegicus [9] = experiment: Antidiabetic activity against 12 hrs fasted STZ-induced diabetic Sprague-Dawley rat model assessed as reduction in blood glucose level at 160 mg/kg, IG administered once daily for 28 days followed by glucose addition after 30 mins post cpd treatment and measured after 30 mins post glucose treatment by oral glucose tolerance test; format: functional, organism-based; conditions: time 673.0 hrs
[10] = In vivo inhibition of ALR2 in STZ-induced diabetic Sprague-Dawley rat model assessed as reduction in sorbitol accumulation in red blood cells at 80 mg/kg, IG administered once daily for 28 days by colorimetric assay relative to control; format: functional; design: scale not given: the % may be the effect or the level left; conditions: time 28 day
Rattus norvegicus [11] = experiment: Antidiabetic activity against STZ-induced diabetic Sprague-Dawley rat model assessed as increase in liver glycogen levels at 160 mg/kg, IG administered once daily for 28 days; format: functional; conditions: time 28 day
Brain [12] = experiment: Antioxidant activity in rat brain homogenate assessed as inhibition of lipid peroxidation by measuring MDA concentration at 5 uM by TBARS assay relative to control; format: functional, tissue-based; design: scale not given: the % may be the effect or the level left
Brain [13] = experiment: Antioxidant activity in rat brain homogenate assessed as inhibition of lipid peroxidation by measuring MDA concentration at 100 uM by TBARS assay relative to control; format: functional, tissue-based; design: scale not given: the % may be the effect or the level left
[14] = Antioxidant activity assessed as DPPH radical scavenging activity at 5 uM incubated for 30 mins by DPPH assay relative to control; format: functional
Rattus norvegicus [15] = experiment: Antidiabetic activity against STZ-induced diabetic Sprague-Dawley rat model assessed as reduction in total cholesterol level in liver at 160 mg/kg, IG administered once daily for 28 days relative to control; format: functional; design: scale not given: the % may be the effect or the level left; conditions: time 28 day
Rattus norvegicus [16] = organism: Rattus norvegicus; experiment: Selectivity index, ratio of IC50 for Wistar rat kidney ALR1 to IC50 for Wistar rat lens ALR2
Rattus norvegicus [17] = experiment: Antidiabetic activity against STZ-induced diabetic Sprague-Dawley rat model assessed as reduction in triglycerides level in liver at 80 mg/kg, IG administered once daily for 28 days relative to control; format: functional; design: scale not given: the % may be the effect or the level left; conditions: time 28 day
[18] = Antioxidant activity assessed as DPPH radical scavenging activity at 10 uM incubated for 30 mins by DPPH assay relative to control; format: functional
Rattus norvegicus [19] = experiment: Antidiabetic activity against STZ-induced diabetic Sprague-Dawley rat model assessed as reduction in total cholesterol level in serum at 80 mg/kg, IG administered once daily for 28 days relative to control; format: functional; design: scale not given: the % may be the effect or the level left; conditions: time 28 day
Rattus norvegicus [20] = experiment: Antidiabetic activity against STZ-induced diabetic Sprague-Dawley rat model assessed as reduction in fasting blood glucose level at 80 mg/kg, IG administered once daily for 28 days; format: functional; design: scale not given: the % may be the effect or the level left; conditions: time 28 day
Brain [21] = experiment: Antioxidant activity in rat brain homogenate assessed as inhibition of lipid peroxidation by measuring MDA concentration at 1 uM by TBARS assay relative to control; format: functional, tissue-based; design: scale not given: the % may be the effect or the level left
Brain [22] = experiment: Antioxidant activity in rat brain homogenate assessed as inhibition of lipid peroxidation by measuring MDA concentration at 10 uM relative to control; format: functional, tissue-based; design: scale not given: the % may be the effect or the level left
[23] = In vivo inhibition of ALR2 in STZ-induced diabetic Sprague-Dawley rat model assessed as reduction in sorbitol accumulation in red blood cells at 160 mg/kg, IG administered once daily for 28 days by colorimetric assay relative to control; format: functional; design: scale not given: the % may be the effect or the level left; conditions: time 28 day
[24] = Inhibition of Wistar rat lens ALR2 using D,L-glyceraldehyde as substrate preincubated for 10 mins in presence of NADPH followed by substrate addition and measured after 4 mins; format: tissue-based
Brain [25] = experiment: Antioxidant activity in rat brain homogenate assessed as inhibition of lipid peroxidation by measuring MDA concentration at 50 uM by TBARS assay relative to control; format: functional, tissue-based; design: scale not given: the % may be the effect or the level left
Rattus norvegicus [26] = experiment: Antioxidant activity against STZ-induced diabetic Sprague-Dawley rat model assessed as reduction in GSH level at 160 mg/kg, IG administered once daily for 28 days relative to control; format: functional; design: scale not given: the % may be the effect or the level left; conditions: time 28 day
Rattus norvegicus [27] = experiment: Antidiabetic activity against STZ-induced diabetic Sprague-Dawley rat model assessed as reduction in triglycerides level in serum at 160 mg/kg, IG administered once daily for 28 days relative to control; format: functional; design: scale not given: the % may be the effect or the level left; conditions: time 28 day
[28] = Inhibition of Wistar rat kidney ALR1 using sodium D-glucuronate as substrate preincubated for 10 mins in presence of NADPH followed by substrate addition and measured after 4 mins; format: tissue-based
Rattus norvegicus [29] = experiment: Antioxidant activity against STZ-induced diabetic Sprague-Dawley rat model assessed as reduction in SOD level at 80 mg/kg, IG administered once daily for 28 days relative to control; format: functional; design: scale not given: the % may be the effect or the level left; conditions: time 28 day
Rattus norvegicus [30] = experiment: Antidiabetic activity against STZ-induced diabetic Sprague-Dawley rat model assessed as reduction in triglycerides level in liver at 160 mg/kg, IG administered once daily for 28 days relative to control; format: functional; design: scale not given: the % may be the effect or the level left; conditions: time 28 day
[31] = In vivo inhibition of ALR2 in STZ-induced diabetic Sprague-Dawley rat model assessed as reduction in ALR2 activity in lens at 160 mg/kg, IG administered once daily for 28 days relative to control; format: functional; design: scale not given: the % may be the effect or the level left; conditions: time 28 day
Rattus norvegicus [32] = experiment: Antidiabetic activity against STZ-induced diabetic Sprague-Dawley rat model assessed as reduction in total cholesterol level in liver at 80 mg/kg, IG administered once daily for 28 days relative to control; format: functional; design: scale not given: the % may be the effect or the level left; conditions: time 28 day
[33] = Antioxidant activity assessed as DPPH radical scavenging activity at 50 uM incubated for 30 mins by DPPH assay relative to control; format: functional
HEK-293T = experiment: Cytotoxicity against HEK293T cells at 15 to 200 micromol/L by MTT assay; format: toxicity, cell-based; conditions: human, dose 15-200 µmol/L
Rattus norvegicus [34] = experiment: Antidiabetic activity against STZ-induced diabetic Sprague-Dawley rat model assessed as reduction in triglycerides level in serum at 80 mg/kg, IG administered once daily for 28 days relative to control; format: functional; design: scale not given: the % may be the effect or the level left; conditions: time 28 day
Rattus norvegicus [35] = experiment: Antioxidant activity against STZ-induced diabetic Sprague-Dawley rat model assessed as reduction in GSH level at 80 mg/kg, IG administered once daily for 28 days relative to control; format: functional; design: scale not given: the % may be the effect or the level left; conditions: time 28 day
[36] = Octanol/buffer distribution coefficient, log D of compound at pH 7.4 incubated for 24 hrs by shake flask based HPLC method; format: physicochemical
[37] = Antioxidant activity assessed as DPPH radical scavenging activity at 100 uM incubated for 30 mins by DPPH assay relative to control; format: functional
Rattus norvegicus [38] = experiment: Antidiabetic activity against 12 hrs fasted STZ-induced diabetic Sprague-Dawley rat model assessed as reduction in AUC of blood glucose at 80 mg/kg, IG administered once daily for 28 days followed by maltose addition after 30 mins post cpd treatment and measured after 30 mins post maltose treatment; format: functional; design: scale not given: the % may be the effect or the level left

Ratio IC50 (Rattus norvegicus [16]): 54.6
IC50 [24]: 0.114 µM
IC50 [28]: 6.22 µM
logD at 24 h [36]: 0.86
Structure (SMILES): COC(=O)Cn1c(=O)oc2c(C(=O)/C=C/c3ccc(O)c(O)c3)cccc21
Activity [1]: 60.8%
Activity [2]: 41.2%
Activity (Rattus norvegicus [3]): Active
Activity (Rattus norvegicus [4]): 81.3%
Activity (Rattus norvegicus [5]): 30.4%
Activity [6]: 34.1%
Activity [7]: 41.7%
Activity (Rattus norvegicus [8]): 44.1%
Activity (Rattus norvegicus [9]): Active
Activity [10]: 59.7%
Activity (Rattus norvegicus [11]): 36.58%
Activity (Brain [12]): 60.5%
Activity (Brain [13]): 97.5%
Activity [14]: 89.4%
Activity (Rattus norvegicus [15]): 3.1%
Activity (Rattus norvegicus [17]): 30.6%
Activity [18]: 94.9%
Activity (Rattus norvegicus [19]): 46%
Activity (Rattus norvegicus [20]): 20.5%
Activity (Brain [21]): 35.8%
Activity (Brain [22]): 77.5%
Activity [23]: 64.7%
Activity (Brain [25]): 91.6%
Activity (Rattus norvegicus [26]): 52.3%
Activity (Rattus norvegicus [27]): 56.5%
Activity (Rattus norvegicus [29]): 35.5%
Activity (Rattus norvegicus [30]): 33.8%
Activity [31]: 52.1%
Activity (Rattus norvegicus [32]): 32.1%
Activity [33]: 96.5%
Activity (HEK-293T): Non-Toxic
Activity (Rattus norvegicus [34]): 44%
Activity (Rattus norvegicus [35]): 26.8%
Activity [37]: 97.5%

Structure (SMILES): C[C@H]1O[C@H](O[C@H]2[C@H](O)[C@@H](O)[C@@H](O[C@H]3[C@H](O)[C@@H](O)C(O)O[C@@H]3CO)O[C@@H]2CO)[C@H](O)[C@@H](O)[C@@H]1N[C@H]1C=C(CO)[C@@H](O)[C@H](O)[C@H]1O (stereo not given in full) [ACARBOSE]
Activity (Rattus norvegicus [38]): 22.35%
Activity (Rattus norvegicus [20]): 16.2%
